Results as given in PubChem BioAssay (NCI).
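Protocol summary: plate cells (96-well), add compound at 5 concentrations, incubate 48 h, interpolate endpoints linearly. At the TGI there is no net growth.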

What was measured:
Assay in all cases: growth of human tumour cells (NCI), 48 h
786-0 renal = tested on: 786-0 renal
BT-549 breast = tested on: BT-549 breast
CAKI-1 renal = tested on: CAKI-1 renal
EKVX NSCLC = tested on: EKVX NSCLC
HL-60(TB) leukemia = tested on: HL-60(TB) leukemia
HOP-92 NSCLC = tested on: HOP-92 NSCLC
HS 578T breast = tested on: HS 578T breast
K-562 leukemia = tested on: K-562 leukemia
KM12 colon = tested on: KM12 colon
MCF7 breast = tested on: MCF7 breast
MDA-N = tested on: MDA-N
MOLT-4 leukemia = tested on: MOLT-4 leukemia
NCI-H226 lung = tested on: NCI-H226 lung
NCI/ADR-RES ovarian = tested on: NCI/ADR-RES ovarian
PC-3 prostate = tested on: PC-3 prostate
RPMI-8226 leukemia = tested on: RPMI-8226 leukemia
SNB-75 CNS = tested on: SNB-75 CNS
TK-10 renal = tested on: TK-10 renal
UACC-257 melanoma = tested on: UACC-257 melanoma
UO-31 renal = tested on: UO-31 renal

SMILES | TGI (786-0 renal) [µM] | TGI (BT-549 breast) [µM] | TGI (CAKI-1 renal) [µM] | TGI (EKVX NSCLC) [µM] | TGI (HL-60(TB) leukemia) [µM] | TGI (HOP-92 NSCLC) [µM] | TGI (HS 578T breast) [µM] | TGI (K-562 leukemia) [µM] | TGI (KM12 colon) [µM] | TGI (MCF7 breast) [µM] | TGI (MDA-N) [µM] | TGI (MOLT-4 leukemia) [µM] | TGI (NCI-H226 lung) [µM] | TGI (NCI/ADR-RES ovarian) [µM] | TGI (PC-3 prostate) [µM] | TGI (RPMI-8226 leukemia) [µM] | TGI (SNB-75 CNS) [µM] | TGI (TK-10 renal) [µM] | TGI (UACC-257 melanoma) [µM] | TGI (UO-31 renal) [µM]
O=C(Oc1cccnc1)c1cc2cc(CCl)ccc2oc1=O | 36.1 | 53.7 | 35 | 52.1 | 58.4 | 36.9 | 55.1 | 40.6 | > 100 | 11.3 | > 100 | 61.4 | > 100 | 76.6 | 32.9 | 66 | 79.7 | 50.8 | 98.7 | 44.5
CC(=O)O/C(=C1\C[C@H]2[C@@H]3CC=C4C[C@@H](OC(C)=O)CC[C@]4(C)[C@H]3CC[C@]2(C)C1=O)C(F)(F)F | 20.6 | 34.7 | 24.3 | 37.9 | 13.6 | 17.7 | 20.8 | 15.1 | 31.8 | 17.8 | 14.9 | 7.37 | 40.7 | 46.6 | 27.3 | 15.8 | 47.4 | 32.4 | 15.1 | 32.1
N#CC(OC1OC(COC2OC(CO)C(O)C(O)C2O)C(O)C(O)C1O)c1ccccc1 (stereo unspecified) |  |  | > 225 | > 225 | > 225 | > 225 |  | > 225 | > 225 | > 225 |  | > 225 | > 225 | > 225 |  | > 225 | > 225 |  | > 225 | > 225
Cc1cc(C)c(C[C@H]2COC(=O)[C@]2(O)Cc2c(C)cc(C)cc2C)c(C)c1 | 38.5 | 35.2 | 34.6 | 28.2 | 42.4 | 29.7 | 38.5 | > 100 | 37.1 | 34 | 44.4 | > 100 | 33.7 | 39.1 | 32.1 | 77.7 | 43.6 | 37.6 | 34.6 | 38.4
CCOC(=O)CO/N=C1/C(c2c(O)[nH]c3ccccc23)=Nc2ccccc21 | > 100 | > 100 | > 100 | > 100 | > 100 | 63.3 | > 100 | > 100 | > 100 | > 100 | > 100 | 78.5 |  | > 100 | > 100 | > 100 | 9.88 | > 100 | > 100 | > 100
CN1C(=O)CSC1=S | > 100 |  | > 100 |  | > 100 | > 100 |  | > 100 | > 100 |  |  | > 100 | > 100 |  |  | > 100 | > 100 | > 100 | > 100 | > 100
CNC(=S)N=Nc1c(O)n(CN2CCOCC2)c2ccc([N+](=O)[O-])cc12 | 28.7 |  | 64.1 | 43.7 | 69.8 | 43.9 | 73 | > 100 | 97.9 | 42.9 | > 100 | > 100 | 36.3 | 38 | 57.5 | 50.5 |  | 29.8 | 77.6 | 14.2
COc1cc(N=Nc2cccc(S(=O)(=O)O)c2)ccc1N=Nc1ccc(/C=C/c2ccc(-n3on3-c3ccc(/C=C/c4ccc(N=Nc5ccc(N=Nc6cccc(S(=O)(=O)O)c6)cc5OC)cc4S(=O)(=O)O)c(S(=O)(=O)O)c3)cc2S(=O)(=O)O)c(S(=O)(=O)O)c1 |  |  |  | > 100 | > 100 | > 100 |  | > 100 | > 100 | > 100 |  | > 100 | > 100 | > 100 |  | > 100 | > 100 |  | > 100 | > 100
COc1ccc(/C(Cl)=C(\C=O)c2ccc(OC)c(OC)c2)cc1 |  |  | > 100 | > 100 | > 100 | 53.4 |  | > 100 |  |  |  | > 100 | > 100 |  |  | > 100 | 58.7 | > 100 |  | > 100
O=C(c1ccccc1)c1c(-c2ccccc2)n(-c2ccccc2)[nH]c(=O)c1=O | > 100 | 91.7 | > 100 | > 100 | 85 | > 100 | 62.1 | 81.4 | > 100 | > 100 | > 100 | > 100 | > 100 | > 100 | 32.9 | > 100 |  | > 100 | > 100 | > 100
O=C(c1cccs1)N(C(=O)N1CCN(c2ccccc2)CC1)S(=O)(=O)c1ccccc1 | 59.4 | 84 | 59.9 | 42.3 | 45 | 55.6 | 65.9 | 80.5 | > 100 | 74.6 | 41.8 | 49.8 | 53.8 | 57.2 | 94.6 |  | 61.2 | > 100 | 69.9 | 40.8
CC1CC[C@@]2(OC1)OC1C[C@H]3[C@@H]4CC[C@H]5CC(OC6OC(CO)C(O)C(OC7OC(CO)C(OC8OC(CO)C(O)C(OC9OC(CO)C(O)C(O)C9O)C8OC8OC(CO)C(O)C(O)C8O)C(O)C7O)C6O)[C@H](O)CC5(C)[C@H]4CCC3(C)C1[C@@H]2C (stereo partly specified) | 6.76 | 10.5 | 11.3 | 10.8 | 9.3 | 12.1 | 6.16 | 12.4 | 12.2 | 5.43 | 13.8 | 16.4 | 13.3 | 12.5 | 6.66 | 12.9 | 10.9 | 11.8 | 16.9 | 6.9
